# Results from PMC5756575, “In Vitro Biotransformation, Safety, and Chemopreventive Action of Novel 8-Methoxy-Purine-2,6-Dione Derivatives” (Applied Biochemistry and Biotechnology, 2017).
# What was measured:
# Type in all cases: in vitro ADME
# Settings in all cases: 0.5 mg/mL, 7-day incubation, LC-MS/MS
# [1] = tested on: Cunninghamella elegans 1906 DMS; test: Cunninghamella biotransformation assay, C. elegans
# Experimental: (§1) Three different strains of Cunninghamella were used: Cunninghamella echinulata NRRL 1384, Cunninghamella blakesleeana 1908 DMS, and Cunninghamella elegans 1906 DMS. The first was provided by Dr. A.J. Carnell (University of Liverpool, UK), whereas the two remaining were purchased from Deutsche Sammlung von Mikroorganismen und Zellkulturen GmbH (DMSZ, Braunschweig, Germany).
# (§2) Cunninghamella strains were cultivated on solid potato dextrose agar (PDA) plates at 28 °C. After 4 days, a liquid fermentation basal medium was prepared by the addition of 6 g of D-glucose, 1.5 g of NaCl, 1.5 g of yeast extract from Saccharomyces cerevisiae, and 1.5 g of K2HPO4 to 300 mL of distilled water. Aliquots of 24.5 mL of medium were inoculated with 300 μL of suspension of fungal spores obtained after wetting colonies in PDA. The fungi were incubated with shaking until the formation of spherical clumps.
# (§3) Compounds 2–4 were evaluated in this experiment. Once microorganisms formed spherical clumps in the preliminary incubation, the corresponding tested compound was added to the broth and the mixture was incubated for 7 days. Two control experiments were also performed, in the absence of compound and fungus, respectively. Biotransformation progress was monitored by TLC and by liquid chromatography electrospray ionization-tandem mass spectrometry (LC-MS/MS). Monitoring was performed at four different incubation times: 30 min, 3 days, 5 days, and 7 days.
# (§4) To analyze metabolites in LC-MS/MS, an aliquot of 500 μL of filtered sample was taken and extracted with 500 μL of dichloromethane. The organic fraction was dried with sodium sulfate, filtered, and evaporated. The obtained residue was analyzed in LC-MS/MS. At the end of experiment, all the remaining medium was extracted with 25 mL of dichloromethane after separating the fungal clumps by filtration over cellulose filters.
# (§5) Agilent 1100 HPLC system (Agilent Technologies, Waldbronn, Germany) equipped with a Xbridge™ C18 analytical column (2.1 × 30 mm, […]; Waters, Dublin, Ireland) was used in the chromatographic separation of LC-MS/MS analysis. An elution gradient of acetonitrile and water, with 0.1% of formic acid, was used as a mobile phase. MS spectra were taken at Applied Biosystems MDS Sciex API 200 triple quadrupole mass analyzer (Concord, Ontario, Canada) with an electrospray ionization (ESI) interface between HPLC and MS.
# [2] = tested on: Cunninghamella blakesleeana 1908 DMS; test: Cunninghamella biotransformation assay, C. blakesleeana
# Experimental: as §1, §2, §3, §4, §5
# [3] = tested on: Cunninghamella echinulata NRRL 1384; test: Cunninghamella biotransformation assay, C. echinulata
# Experimental: as §1, §2, §3, §4, §5
SMILES,% of compound/metabolite in C. elegans [1],% of compound/metabolite in C. blakesleeana [2],% of compound/metabolite in C. echinulata [3] [%]
COc1nc2c(c(=O)n(C)c(=O)n2C)n1CCCC(=O)NCc1ccc(O)cc1 [3-M4],– – – 0.6%,– – – 4.6%,4.2
COc1nc2c(c(=O)n(C)c(=O)n2C)n1CCCC(=O)N1CCN(c2ccc(O)cc2)CC1 [4-M1],53.0%,66.6%,87.6
